# Tests used:
# [1] = Antiproliferative activity against chinese hamster RT16 cells expressing human folate receptor alpha after 96 hrs by celltiter-blue cell viability assay in presence of folic acid; conditions: Cricetulus griseus, RT16, 96 h
# [2] = biological target: Folate receptor alpha (Homo sapiens) (UniProt P15328); test: Displacement of [3H]folic acid from human folate receptor alpha in chinese hamster RT16 cells assessed as relative binding affinity relative to folic acid; assay type: cell-based
# Folate receptor alpha (Homo sapiens), sequence (P15328 25-234 limits assumed): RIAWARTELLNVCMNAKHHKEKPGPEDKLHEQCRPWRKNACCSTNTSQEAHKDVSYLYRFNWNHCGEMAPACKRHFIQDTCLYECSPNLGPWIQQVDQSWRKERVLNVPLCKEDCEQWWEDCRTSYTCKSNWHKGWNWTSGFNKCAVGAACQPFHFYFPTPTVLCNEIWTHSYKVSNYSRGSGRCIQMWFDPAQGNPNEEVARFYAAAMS
# [3] = Antiproliferative activity against chinese hamster MTXRII-OuaR2-4 cells expressing empty pCDNA3.1 after 96 hrs by celltiter-blue cell viability assay; conditions: Cricetulus griseus
# [4] = Antiproliferative activity against chinese hamster MTXRII-OuaR2-4 cells expressing human proton-coupled folate transporter after 96 hrs by celltiter-blue cell viability assay; conditions: Cricetulus griseus
# IGROV-1 [5] = test: Antiproliferative activity against human IGROV1 cells expressing human reduced folate carrier/folate receptor alpha after 96 hrs by celltiter-blue cell viability assay in presence of folic acid; conditions: IGROV-1, 96 h
# [6] = biological target: Folate receptor beta (Homo sapiens) (UniProt P14207); test: Displacement of [3H]folic acid from human folate receptor beta in chinese hamster D4 cells assessed as relative binding affinity relative to folic acid; assay type: cell-based
# Folate receptor beta (Homo sapiens), sequence (P14207 17-230 limits assumed): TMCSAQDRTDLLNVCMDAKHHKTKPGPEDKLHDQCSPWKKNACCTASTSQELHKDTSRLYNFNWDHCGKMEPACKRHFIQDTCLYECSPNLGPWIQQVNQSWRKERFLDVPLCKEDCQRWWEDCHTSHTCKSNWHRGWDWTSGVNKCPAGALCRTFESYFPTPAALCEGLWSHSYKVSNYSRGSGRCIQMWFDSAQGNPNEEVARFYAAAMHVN
# [7] = Antiproliferative activity against chinese hamster D4 cells expressing human folate receptor beta after 96 hrs by celltiter-blue cell viability assay in presence of folic acid; conditions: Cricetulus griseus, D4, 96 h
# [8] = Antiproliferative activity against chinese hamster MTXRII-OuaR2-4 cells expressing human reduced folate carrier after 96 hrs by celltiter-blue cell viability assay; conditions: Cricetulus griseus
# KB [9] = test: Antiproliferative activity against human KB cells expressing human reduced folate carrier/folate receptor alpha after 96 hrs by celltiter-blue cell viability assay in presence of folic acid
# [10] = biological target: T1, Trifunctional purine biosynthetic protein adenosine-3 (Mus musculus, UniProt Q64737); test: Inhibition of mouse recombinant GARFTase
# T1 sequence (Q64737 whole entry): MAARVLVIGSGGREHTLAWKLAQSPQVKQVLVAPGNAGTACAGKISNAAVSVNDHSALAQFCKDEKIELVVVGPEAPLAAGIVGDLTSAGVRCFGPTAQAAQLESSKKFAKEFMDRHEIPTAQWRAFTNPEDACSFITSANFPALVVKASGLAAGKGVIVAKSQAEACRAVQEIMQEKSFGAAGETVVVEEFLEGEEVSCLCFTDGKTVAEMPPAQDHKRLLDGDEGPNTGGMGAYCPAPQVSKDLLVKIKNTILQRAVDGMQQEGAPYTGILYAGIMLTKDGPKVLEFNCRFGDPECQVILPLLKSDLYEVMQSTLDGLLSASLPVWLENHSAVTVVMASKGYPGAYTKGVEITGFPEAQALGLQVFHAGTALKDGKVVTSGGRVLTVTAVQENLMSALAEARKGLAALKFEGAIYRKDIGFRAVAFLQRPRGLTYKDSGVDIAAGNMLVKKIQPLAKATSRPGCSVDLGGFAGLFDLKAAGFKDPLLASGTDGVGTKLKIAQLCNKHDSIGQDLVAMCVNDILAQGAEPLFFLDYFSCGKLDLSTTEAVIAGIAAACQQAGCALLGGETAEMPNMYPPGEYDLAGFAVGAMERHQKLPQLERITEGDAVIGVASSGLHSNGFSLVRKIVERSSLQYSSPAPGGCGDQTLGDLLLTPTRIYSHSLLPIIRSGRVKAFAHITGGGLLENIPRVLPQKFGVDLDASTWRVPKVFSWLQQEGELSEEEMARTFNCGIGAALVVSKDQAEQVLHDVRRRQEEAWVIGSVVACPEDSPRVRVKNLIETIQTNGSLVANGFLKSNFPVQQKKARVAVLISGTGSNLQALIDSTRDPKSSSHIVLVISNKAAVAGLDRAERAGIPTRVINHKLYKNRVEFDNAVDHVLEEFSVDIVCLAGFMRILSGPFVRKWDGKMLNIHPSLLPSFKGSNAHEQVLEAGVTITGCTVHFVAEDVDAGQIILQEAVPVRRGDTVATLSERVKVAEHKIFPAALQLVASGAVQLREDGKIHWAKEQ
# [11] = Antiproliferative activity against chinese hamster PC43-10 cells expressing human reduced folate carrier after 96 hrs by celltiter-blue cell viability assay; conditions: Cricetulus griseus, PC43-10, 96 h
# [12] = Antiproliferative activity against chinese hamster D4 cells expressing human folate receptor beta after 96 hrs by celltiter-blue cell viability assay; conditions: Cricetulus griseus, D4, 96 h
# [13] = biological target: T2, Trifunctional purine biosynthetic protein adenosine-3 (Homo sapiens, UniProt P22102); test: Inhibition of GARFTase in human KB cells assessed as inhibition of incorporation of [14C]glycine into [14C]formyl GAR after 30 mins in presence of azaserine
# T2 sequence (P22102 whole entry): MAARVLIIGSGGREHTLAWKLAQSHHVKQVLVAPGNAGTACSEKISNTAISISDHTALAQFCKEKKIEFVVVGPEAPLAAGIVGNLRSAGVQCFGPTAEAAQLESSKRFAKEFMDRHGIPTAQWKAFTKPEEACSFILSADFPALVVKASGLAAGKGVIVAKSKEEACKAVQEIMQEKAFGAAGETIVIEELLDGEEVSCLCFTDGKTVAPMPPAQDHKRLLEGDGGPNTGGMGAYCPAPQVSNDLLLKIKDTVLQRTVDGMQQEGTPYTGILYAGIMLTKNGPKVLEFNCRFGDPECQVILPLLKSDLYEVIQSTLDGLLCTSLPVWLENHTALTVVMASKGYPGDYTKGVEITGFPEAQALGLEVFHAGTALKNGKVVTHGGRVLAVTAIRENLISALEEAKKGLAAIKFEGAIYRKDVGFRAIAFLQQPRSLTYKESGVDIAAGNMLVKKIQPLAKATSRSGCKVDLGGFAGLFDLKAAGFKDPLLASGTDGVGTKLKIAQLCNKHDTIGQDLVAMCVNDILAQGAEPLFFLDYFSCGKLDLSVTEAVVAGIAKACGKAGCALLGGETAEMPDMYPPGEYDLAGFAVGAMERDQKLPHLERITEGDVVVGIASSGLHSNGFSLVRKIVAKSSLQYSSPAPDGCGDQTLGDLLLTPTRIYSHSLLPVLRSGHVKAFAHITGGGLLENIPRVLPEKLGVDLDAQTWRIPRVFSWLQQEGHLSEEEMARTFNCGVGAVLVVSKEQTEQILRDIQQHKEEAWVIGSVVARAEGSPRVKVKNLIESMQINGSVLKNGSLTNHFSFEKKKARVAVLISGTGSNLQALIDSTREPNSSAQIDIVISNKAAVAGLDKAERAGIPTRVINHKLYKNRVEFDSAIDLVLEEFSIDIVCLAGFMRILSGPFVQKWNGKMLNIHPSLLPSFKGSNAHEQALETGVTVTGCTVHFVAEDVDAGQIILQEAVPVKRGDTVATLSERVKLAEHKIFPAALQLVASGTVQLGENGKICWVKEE
# IGROV-1 [14] = test: Antiproliferative activity against human IGROV1 cells expressing human reduced folate carrier/folate receptor alpha after 96 hrs by celltiter-blue cell viability assay; conditions: IGROV-1, 96 h
# KB [15] = test: Antiproliferative activity against human KB cells expressing human reduced folate carrier/folate receptor alpha after 96 hrs by celltiter-blue cell viability assay
# [16] = Antiproliferative activity against chinese hamster RT16 cells expressing human folate receptor alpha after 96 hrs by celltiter-blue cell viability assay; conditions: Cricetulus griseus, RT16, 96 h
Compound,IC50 [1] [nM],relative binding affinity (RBA) [2],IC50 [3] [nM],IC50 [4] [nM],IC50 (IGROV-1 [5]) [nM],relative binding affinity (RBA) [6],IC50 [7] [nM],IC50 [8] [nM],IC50 (KB [9]) [nM],IC50 [10] [nM],IC50 [11] [nM],IC50 [12] [nM],IC50 [13] [nM],IC50 (IGROV-1 [14]) [nM],IC50 (KB [15]) [nM],IC50 [16] [nM]
Nc1nc2sc(CCCc3ccc(C(=O)N[C@@H](CCC(=O)O)C(=O)O)cc3)cc2c(=O)[nH]1,> 1000,> 0.8,> 1000,> 1000,> 1000,> 0.8,> 1000,> 1000,> 1000,8520,> 1000,112,,,,
Nc1nc2sc(CCc3ccc(C(=O)N[C@@H](CCC(=O)O)C(=O)O)cc3)cc2c(=O)[nH]1,> 1000,0.25,> 1000,> 1000,> 1000,< 0.01,> 1000,> 1000,> 1000,> 20000,> 1000,> 1000,32.3,> 1000,> 1000,> 1000
CN(Cc1cnc2nc(N)nc(N)c2n1)c1ccc(C(=O)N[C@@H](CCC(=O)O)C(=O)O)cc1,,0.8,,,,,,,,,,,,,,
Nc1nc2sc(CCCCCCCCc3ccc(C(=O)N[C@@H](CCC(=O)O)C(=O)O)cc3)cc2c(=O)[nH]1,> 1000,> 0.8,> 1000,> 1000,> 1000,> 0.8,> 1000,> 1000,> 1000,,> 1000,> 1000,,> 1000,> 1000,> 1000
Nc1nc2sc(CCCCCCc3ccc(C(=O)N[C@@H](CCC(=O)O)C(=O)O)cc3)cc2c(=O)[nH]1,> 1000,> 0.8,> 1000,> 1000,> 1000,> 0.8,> 1000,> 1000,> 1000,,> 1000,364,26.6,334,,108
Nc1nc2sc(CCCCCCCc3ccc(C(=O)N[C@@H](CCC(=O)O)C(=O)O)cc3)cc2c(=O)[nH]1,> 1000,> 0.8,> 1000,> 1000,> 1000,> 0.8,> 1000,> 1000,> 1000,,> 1000,> 1000,,> 1000,> 1000,> 1000
Nc1nc2sc(CCCCCc3ccc(C(=O)N[C@@H](CCC(=O)O)C(=O)O)cc3)cc2c(=O)[nH]1,> 1000,> 0.8,> 1000,> 1000,> 1000,> 0.8,> 1000,> 1000,> 1000,,> 1000,,23.6,,132,
Nc1nc2sc(CCCCc3ccc(C(=O)N[C@@H](CCC(=O)O)C(=O)O)cc3)cc2c(=O)[nH]1,> 1000,> 0.8,> 1000,> 1000,> 1000,> 0.8,> 1000,> 1000,> 1000,,> 1000,,,,,
